# Laboratory results published in PMC9742383, “From tryptamine to the discovery of efficient multi-target directed ligands against cholinesterase-associated neurodegenerative disorders” (Frontiers in Pharmacology, 2022).
# Target: T1, AChE (Electrophorus electricus, UniProt O42275)
# T1 construct: native enzyme, Type V-S lyophilized powder, Sigma-Aldrich
# Test: Ellman colorimetric assay
# Assay type: biochemical
# Conditions: read-out: IC50 ± SD / AChE ^a
# T1 sequence (O42275 24-633): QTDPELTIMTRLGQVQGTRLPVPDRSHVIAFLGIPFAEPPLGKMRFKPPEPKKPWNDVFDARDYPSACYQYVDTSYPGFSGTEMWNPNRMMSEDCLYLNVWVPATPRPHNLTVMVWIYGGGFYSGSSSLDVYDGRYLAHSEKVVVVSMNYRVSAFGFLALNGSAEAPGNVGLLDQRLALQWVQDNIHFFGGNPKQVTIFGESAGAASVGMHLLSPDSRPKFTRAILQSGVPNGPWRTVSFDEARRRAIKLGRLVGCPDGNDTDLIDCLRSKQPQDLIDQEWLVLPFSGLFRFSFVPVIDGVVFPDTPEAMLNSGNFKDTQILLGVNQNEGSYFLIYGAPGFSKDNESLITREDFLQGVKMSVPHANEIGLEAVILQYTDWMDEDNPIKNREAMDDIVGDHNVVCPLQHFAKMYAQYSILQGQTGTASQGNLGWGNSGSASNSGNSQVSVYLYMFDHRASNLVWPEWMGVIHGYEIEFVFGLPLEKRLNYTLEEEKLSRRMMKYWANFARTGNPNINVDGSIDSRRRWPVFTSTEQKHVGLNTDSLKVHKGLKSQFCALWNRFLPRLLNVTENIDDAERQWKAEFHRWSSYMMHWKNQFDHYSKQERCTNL
row,Compound,IC50 [µM]
1,"O=C(Oc1ccc2[nH]cc(CCN(Cc3ccccc3)Cc3ccccc3)c2c1)N1CCC1 [2q, 3-(2-(dibenzylamino)ethyl)-1H-indol-5-yl azetidine-1-carboxylate]",0.742 ± 0.00987
2,"O=C(Oc1ccc2[nH]cc(CCN(Cc3ccccc3)Cc3ccccc3)c2c1)N1CCCC1 [2r, 3-(2-(dibenzylamino)ethyl)-1H-indol-5-yl pyrrolidine-1-carboxylate]",> 100
3,"O=C(Oc1ccc2[nH]cc(CCN(Cc3ccccc3)Cc3ccccc3)c2c1)N1CCCCCC1 [2t, 3-(2-(dibenzylamino)ethyl)-1H-indol-5-yl azepane-1-carboxylate]",> 100
4,"O=C(Oc1ccc2[nH]cc(CCN(Cc3ccccc3)Cc3ccccc3)c2c1)N1CCOCC1 [2u, 3-(2-(dibenzylamino)ethyl)-1H-indol-5-yl morpholine-4-carboxylate]",> 100

# Same assay, conditions: read-out: IC50 ± SD ^a / AChE ^a
row,Compound,IC50 [µM]
1,"CCCCCNC(=O)Oc1ccc2[nH]cc(CCNCc3ccccc3)c2c1 [3c, 3-(2-(benzylamino)ethyl)-1H-indol-5-yl pentylcarbamate]",1.13
2,"O=C(NC1CC1)Oc1ccc2[nH]cc(CCNCc3ccccc3)c2c1 [3f, 3-(2-(benzylamino)ethyl)-1H-indol-5-yl cyclopropylcarbamate]",3.17
3,"O=C(Oc1ccc2[nH]cc(CCNCc3ccccc3)c2c1)N1CCCCC1 [3s, 3-(2-(benzylamino)ethyl)-1H-indol-5-yl piperidine-1-carboxylate]",9.08

# System: not listed separately
# Test: in vitro
# Set-up: species or system LO2, HepG2; MTT cytotoxicity, absorbance at 570 nm
# Conditions: human, sh-sy5y; read-out: ^a IC50 ± SD (μM) / SH-SY5Y
# Procedure: (§1) The cell lines present in this study were purchased from the China Center for Type Collection (CCTCC, China). For cytotoxicity assay, HT-22, BV2, SH-SY5Y, HepG2, and LO2 cells were incubated in 96-well plates at the density of 5 × 10³ per well. After incubation for 12 h at 37°C, the tested compounds with the required concentrations were added to the corresponding wells and continuously incubated for 24 h at 37°C. Then, the prepared MTT (3-[4,5-dimethyl-2-thiazolyl]-2,5-diphenyl-2H-tetrazolium bromide) solution was added to each well and co-incubated for another 4 h at 37°C. Then, the supernatant was removed, and 100 μl DMSO was added to each well. The OD value of each well was detected at 570 nm using a microplate reader (Bio-Rad Laboratories, CA, United States). The IC50 values were calculated using IBM SPSS Statistics 25.0 software. All experiments were performed in triplicate, and the results were shown as the mean ± SD. In order to further evaluate the applicability of the compounds with dibenzyl groups for neurological diseases, we also tested the cytotoxicity of the selected compounds (2f, 2h, 2j, 2m, 2o-2r, 2t, and 2u) bearing little toxicity on HT-22 cells, microglia cell line BV2, and human neuroblastoma cell line SH-SY5Y, which are widely used in the study of neurological diseases. […] In view of some carbamate-based ChE inhibitors reported to be hepatotoxic, we further performed the preliminary evaluation of the hepatotoxicity of the selected compounds on human normal liver cell line LO2 and human hepatocellular carcinoma cell line HepG2.
row,Compound,CC50 at 24 h [µM]
1,"O=C(Oc1ccc2[nH]cc(CCN(Cc3ccccc3)Cc3ccccc3)c2c1)N1CCCC1 [2r, 3-(2-(dibenzylamino)ethyl)-1H-indol-5-yl pyrrolidine-1-carboxylate]",> 100
2,"O=C(Oc1ccc2[nH]cc(CCN(Cc3ccccc3)Cc3ccccc3)c2c1)N1CCOCC1 [2u, 3-(2-(dibenzylamino)ethyl)-1H-indol-5-yl morpholine-4-carboxylate]",> 100
3,CCN(C)C(=O)Oc1cccc([C@H](C)N(C)C)c1 [rivastigmine],> 100

# System: not listed separately
# Test: in vitro
# Set-up: species or system SH-SY5Y, LO2; MTT cytotoxicity, absorbance at 570 nm
# Conditions: human, hepg2; read-out: ^a IC50 ± SD (μM) / HepG2
# Procedure: as §1
row,Compound,CC50 at 24 h [µM]
1,"O=C(Oc1ccc2[nH]cc(CCN(Cc3ccccc3)Cc3ccccc3)c2c1)N1CCCC1 [2r, 3-(2-(dibenzylamino)ethyl)-1H-indol-5-yl pyrrolidine-1-carboxylate]",> 100
2,"O=C(Oc1ccc2[nH]cc(CCN(Cc3ccccc3)Cc3ccccc3)c2c1)N1CCCCCC1 [2t, 3-(2-(dibenzylamino)ethyl)-1H-indol-5-yl azepane-1-carboxylate]",> 100
3,"O=C(Oc1ccc2[nH]cc(CCN(Cc3ccccc3)Cc3ccccc3)c2c1)N1CCOCC1 [2u, 3-(2-(dibenzylamino)ethyl)-1H-indol-5-yl morpholine-4-carboxylate]",> 100
4,CCN(C)C(=O)Oc1cccc([C@H](C)N(C)C)c1 [rivastigmine],> 100

# Same assay, conditions: human, hepg2 cells; read-out: ^a IC50 ± SD (μM) / HepG2
row,Compound,CC50 at 24 h [µM]
1,"O=C(Oc1ccc2[nH]cc(CCN(Cc3ccccc3)Cc3ccccc3)c2c1)N1CCC1 [2q, 3-(2-(dibenzylamino)ethyl)-1H-indol-5-yl azetidine-1-carboxylate]",> 100

# Target: T2, BuChE (Equus caballus, UniProt P81908)
# Test: Ellman colorimetric assay
# Assay type: biochemical
# Set-up: gene BCHE; native enzyme from equine serum, purchased from Sigma-Aldrich
# Conditions: read-out: IC50 ± SD / BuChE ^a
# T2 sequence (P81908 whole entry): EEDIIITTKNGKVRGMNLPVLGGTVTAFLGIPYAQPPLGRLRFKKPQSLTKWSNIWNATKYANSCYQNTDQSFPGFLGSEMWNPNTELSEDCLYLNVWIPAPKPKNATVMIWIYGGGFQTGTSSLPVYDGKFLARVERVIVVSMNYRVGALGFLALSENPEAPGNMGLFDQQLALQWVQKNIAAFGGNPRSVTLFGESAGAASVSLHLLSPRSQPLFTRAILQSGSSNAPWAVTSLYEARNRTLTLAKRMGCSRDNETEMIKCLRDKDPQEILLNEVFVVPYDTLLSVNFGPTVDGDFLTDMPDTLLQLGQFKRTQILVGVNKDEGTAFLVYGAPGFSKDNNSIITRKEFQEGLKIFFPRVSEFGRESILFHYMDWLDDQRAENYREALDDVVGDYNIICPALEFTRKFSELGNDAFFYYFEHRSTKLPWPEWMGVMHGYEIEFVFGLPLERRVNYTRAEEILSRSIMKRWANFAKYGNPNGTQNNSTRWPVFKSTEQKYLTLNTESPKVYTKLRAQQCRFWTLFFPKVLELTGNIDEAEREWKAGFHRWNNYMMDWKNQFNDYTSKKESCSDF
row,Compound,IC50 [µM]
1,"O=C(Oc1ccc2[nH]cc(CCN(Cc3ccccc3)Cc3ccccc3)c2c1)N1CCC1 [2q, 3-(2-(dibenzylamino)ethyl)-1H-indol-5-yl azetidine-1-carboxylate]",0.00165 ± 3e-05
2,"O=C(Oc1ccc2[nH]cc(CCN(Cc3ccccc3)Cc3ccccc3)c2c1)N1CCCC1 [2r, 3-(2-(dibenzylamino)ethyl)-1H-indol-5-yl pyrrolidine-1-carboxylate]",0.0205 ± 0.0017
3,"O=C(Oc1ccc2[nH]cc(CCN(Cc3ccccc3)Cc3ccccc3)c2c1)N1CCCCCC1 [2t, 3-(2-(dibenzylamino)ethyl)-1H-indol-5-yl azepane-1-carboxylate]",0.068 ± 0.00842
4,"O=C(Oc1ccc2[nH]cc(CCN(Cc3ccccc3)Cc3ccccc3)c2c1)N1CCOCC1 [2u, 3-(2-(dibenzylamino)ethyl)-1H-indol-5-yl morpholine-4-carboxylate]",0.114 ± 0.00145

# Same assay, conditions: read-out: IC50 ± SD ^a / BuChE ^a
row,Compound,IC50 [µM]
1,"CCCCCNC(=O)Oc1ccc2[nH]cc(CCNCc3ccccc3)c2c1 [3c, 3-(2-(benzylamino)ethyl)-1H-indol-5-yl pentylcarbamate]",0.0239 ± 0.0029
2,"O=C(NC1CC1)Oc1ccc2[nH]cc(CCNCc3ccccc3)c2c1 [3f, 3-(2-(benzylamino)ethyl)-1H-indol-5-yl cyclopropylcarbamate]",0.0157 ± 0.0013
3,"O=C(Oc1ccc2[nH]cc(CCNCc3ccccc3)c2c1)N1CCCCC1 [3s, 3-(2-(benzylamino)ethyl)-1H-indol-5-yl piperidine-1-carboxylate]",0.0339 ± 0.00214

# System: not listed separately
# Test: in vitro
# Set-up: MTT cytotoxicity, absorbance at 570 nm, HT-22 mouse hippocampal neuronal cells
# Conditions: mouse, ht-22; read-out: IC50 ± SD / HT-22 ^a
# Procedure: The cell lines present in this study were purchased from the China Center for Type Collection (CCTCC, China). For cytotoxicity assay, HT-22, BV2, SH-SY5Y, HepG2, and LO2 cells were incubated in 96-well plates at the density of 5 × 10³ per well. After incubation for 12 h at 37°C, the tested compounds with the required concentrations were added to the corresponding wells and continuously incubated for 24 h at 37°C. Then, the prepared MTT (3-[4,5-dimethyl-2-thiazolyl]-2,5-diphenyl-2H-tetrazolium bromide) solution was added to each well and co-incubated for another 4 h at 37°C. Then, the supernatant was removed, and 100 μl DMSO was added to each well. The OD value of each well was detected at 570 nm using a microplate reader (Bio-Rad Laboratories, CA, United States). The IC50 values were calculated using IBM SPSS Statistics 25.0 software. All experiments were performed in triplicate, and the results were shown as the mean ± SD. In order to explore the applicability of the synthesized CTDs in neurological diseases, the neuronal cytotoxicity of the synthesized compounds was evaluated on mouse hippocampal neuronal cell line HT-22. […] In view of these CTDs endowed strong inhibition efficacy on BuChE, we preliminarily evaluated their safety range by comparing their IC50 values on cytotoxicity and BuChE inhibitory activity. […] Therefore, the series of compounds with dibenzyl groups, especially compounds bearing ring carbon alkyl chains (2f-2h) and tertiary amine residues (2j-2u) with little cytotoxicity on HT-22, can be considered as potential lead building blocks for further structure optimization to develop novel effective agents against neurological diseases.
row,Compound,CC50 at 24 h [µM]
1,"O=C(Oc1ccc2[nH]cc(CCN(Cc3ccccc3)Cc3ccccc3)c2c1)N1CCC1 [2q, 3-(2-(dibenzylamino)ethyl)-1H-indol-5-yl azetidine-1-carboxylate]",86.5 ± 1.82
2,"O=C(Oc1ccc2[nH]cc(CCN(Cc3ccccc3)Cc3ccccc3)c2c1)N1CCCC1 [2r, 3-(2-(dibenzylamino)ethyl)-1H-indol-5-yl pyrrolidine-1-carboxylate]",79.8 ± 5.36
3,"O=C(Oc1ccc2[nH]cc(CCN(Cc3ccccc3)Cc3ccccc3)c2c1)N1CCCCCC1 [2t, 3-(2-(dibenzylamino)ethyl)-1H-indol-5-yl azepane-1-carboxylate]",> 100
4,"O=C(Oc1ccc2[nH]cc(CCN(Cc3ccccc3)Cc3ccccc3)c2c1)N1CCOCC1 [2u, 3-(2-(dibenzylamino)ethyl)-1H-indol-5-yl morpholine-4-carboxylate]",78.7 ± 3.79

# Same assay, conditions: mouse, ht-22 hippocampal neuronal cells; read-out: IC50 ± SD / HT-22 ^a
row,Compound,CC50 at 24 h [µM]
1,"CCCCCNC(=O)Oc1ccc2[nH]cc(CCNCc3ccccc3)c2c1 [3c, 3-(2-(benzylamino)ethyl)-1H-indol-5-yl pentylcarbamate]",10.6 ± 0.24
2,"O=C(NC1CC1)Oc1ccc2[nH]cc(CCNCc3ccccc3)c2c1 [3f, 3-(2-(benzylamino)ethyl)-1H-indol-5-yl cyclopropylcarbamate]",15 ± 1.17
3,"O=C(Oc1ccc2[nH]cc(CCNCc3ccccc3)c2c1)N1CCCCC1 [3s, 3-(2-(benzylamino)ethyl)-1H-indol-5-yl piperidine-1-carboxylate]",13.8 ± 0.91

# Target: T2, BuChE
# Test: time-dependent Ellman assay, kobs analysis
# Set-up: gene BCHE
# Conditions: read-out: kc; equilibrium constant of reversible step before carbamylation; covalent
row,Compound,KI (inactivation) [µM]
1,"CCCCCNC(=O)Oc1ccc2[nH]cc(CCNCc3ccccc3)c2c1 [3c, 3-(2-(benzylamino)ethyl)-1H-indol-5-yl pentylcarbamate]",0.0737
2,"O=C(NC1CC1)Oc1ccc2[nH]cc(CCNCc3ccccc3)c2c1 [3f, 3-(2-(benzylamino)ethyl)-1H-indol-5-yl cyclopropylcarbamate]",0.00576
3,"O=C(Oc1ccc2[nH]cc(CCNCc3ccccc3)c2c1)N1CCCCC1 [3s, 3-(2-(benzylamino)ethyl)-1H-indol-5-yl piperidine-1-carboxylate]",0.00508
4,CCN(C)C(=O)Oc1cccc([C@H](C)N(C)C)c1 [rivastigmine],0.0559

# System: not listed separately
# Test: in vitro
# Set-up: species or system SH-SY5Y, HepG2; MTT cytotoxicity, absorbance at 570 nm
# Conditions: human, lo2 cells; read-out: ^a IC50 ± SD (μM) / LO2
# Procedure: as §1
row,Compound,CC50 at 24 h [µM]
1,"O=C(Oc1ccc2[nH]cc(CCN(Cc3ccccc3)Cc3ccccc3)c2c1)N1CCCC1 [2r, 3-(2-(dibenzylamino)ethyl)-1H-indol-5-yl pyrrolidine-1-carboxylate]",> 100
2,"O=C(Oc1ccc2[nH]cc(CCN(Cc3ccccc3)Cc3ccccc3)c2c1)N1CCCCCC1 [2t, 3-(2-(dibenzylamino)ethyl)-1H-indol-5-yl azepane-1-carboxylate]",> 100
3,"O=C(Oc1ccc2[nH]cc(CCN(Cc3ccccc3)Cc3ccccc3)c2c1)N1CCOCC1 [2u, 3-(2-(dibenzylamino)ethyl)-1H-indol-5-yl morpholine-4-carboxylate]",> 100
4,CCN(C)C(=O)Oc1cccc([C@H](C)N(C)C)c1 [rivastigmine],> 100
